# From ChEMBL document CHEMBL3745710, “Synthesis, antibacterial and anti-MRSA activity, in vivo toxicity and a structure-activity relationship study of a quinoline thiourea” (Bioorg Med Chem Lett, 2016)
# Active and inactive are the calls of the source. The rule behind the calls is not given here.
# How the values were obtained:
# Pseudomonas aeruginosa = assay: Antibacterial activity against Pseudomonas aeruginosa ATCC 10145 after 24 hrs by serial dilution method; type: functional, organism-based
# Staphylococcus aureus [1] = assay: Antibacterial activity against Staphylococcus aureus NCIMB 12702 after 24 hrs by serial dilution method; type: functional; details: for MIC90 / MIC50 / MIC80: Staphylococcus aureus, NCIMB 12702, 24 h
# Escherichia coli = assay: Antibacterial activity against Escherichia coli NCIMB 9485 after 24 hrs by serial dilution method; type: functional; details: for MIC90 / MIC50 / MIC80: NCIMB 9485, 24 h
# [2] = Toxicity in sixth development stage of Galleria mellonella larvae assessed as survival rate at 100 ug/ml after 72 hrs; type: organism-based; details: in vivo
# [3] = Toxicity in sixth development stage of Galleria mellonella larvae assessed as survival rate at 1000 ug/ml after 48 hrs; type: organism-based; details: in vivo
# [4] = Toxicity in sixth development stage of Galleria mellonella larvae assessed as survival rate at 1 ug/ml after 24 hrs; type: organism-based; details: in vivo
# [5] = Toxicity in sixth development stage of Galleria mellonella larvae assessed as survival rate at 10 ug/ml after 72 hrs; type: organism-based; details: in vivo
# [6] = Toxicity in sixth development stage of Galleria mellonella larvae assessed as survival rate at 10 ug/ml after 24 hrs; type: organism-based; details: in vivo
# [7] = Toxicity in sixth development stage of Galleria mellonella larvae assessed as survival rate at 1 ug/ml after 48 hrs; type: organism-based; details: in vivo
# [8] = Toxicity in sixth development stage of Galleria mellonella larvae assessed as survival rate at 1000 ug/ml after 24 hrs; type: organism-based; details: in vivo
# Galleria mellonella = assay: Toxicity in sixth development stage of Galleria mellonella larvae assessed as larvae pupation at 1 to 1000 ug/ml after 7 days relative to control; type: organism-based; details: in vivo, 168 h
# [9] = Toxicity in sixth development stage of Galleria mellonella larvae assessed as survival rate at 10 ug/ml after 48 hrs; type: organism-based; details: in vivo
# [10] = Toxicity in sixth development stage of Galleria mellonella larvae assessed as survival rate at 100 ug/ml after 48 hrs; type: organism-based; details: in vivo
# [11] = Toxicity in sixth development stage of Galleria mellonella larvae assessed as survival rate at 50 ug/ml after 24 hrs; type: organism-based; details: in vivo
# [12] = Toxicity in sixth development stage of Galleria mellonella larvae assessed as survival rate at 100 ug/ml after 24 hrs; type: organism-based; details: in vivo
# [13] = Toxicity in sixth development stage of Galleria mellonella larvae assessed as survival rate at 1 ug/ml after 72 hrs; type: organism-based; details: in vivo
# [14] = Toxicity in sixth development stage of Galleria mellonella larvae assessed as survival rate at 50 ug/ml after 48 hrs; type: organism-based; details: in vivo
# [15] = Toxicity in sixth development stage of Galleria mellonella larvae assessed as survival rate at 1000 ug/ml after 72 hrs; type: organism-based; details: in vivo
# [16] = Toxicity in sixth development stage of Galleria mellonella larvae assessed as survival rate at 50 ug/ml after 72 hrs; type: organism-based; details: in vivo
# Staphylococcus aureus [17] = assay: Antibacterial activity against methicillin-resistant Staphylococcus aureus after 24 hrs by serial dilution method; type: functional
smiles,measurement,setting,value
CCC1CN2CCC1CC2[C@@H](Oc1cc2ccccc2c2ccccc12)c1ccnc2ccc(OC)cc12 (some centres undefined),MIC,Pseudomonas aeruginosa,inactive
same,MIC90,Staphylococcus aureus [1],> 200 µM
same,MIC90,Escherichia coli,> 200 µM
CN[C@@H](CC(C)C)C(=O)N[C@H]1C(=O)N[C@@H](CC(N)=O)C(=O)N[C@H]2C(=O)N[C@H]3C(=O)N[C@H](C(=O)N[C@@H](C(=O)O)c4cc(O)cc(O)c4-c4cc3ccc4O)[C@H](O)c3ccc(c(Cl)c3)Oc3cc2cc(c3O[C@H]2O[C@@H](CO)[C@H](O)[C@@H](O)[C@@H]2O[C@@H]2C[C@@](C)(N)[C@@H](O)[C@@H](C)O2)Oc2ccc(cc2Cl)[C@H]1O,MIC50,Staphylococcus aureus [1],1.58 µM
same,MIC80,Staphylococcus aureus [1],3.16 µM
same,MIC90,Staphylococcus aureus [1],4.21 µM
same,MIC50,Escherichia coli,1.58 µM
same,MIC80,Escherichia coli,2.1 µM
same,MIC90,Escherichia coli,4.21 µM
C=CC1CN2CCC1CC2[C@@H](Oc1cc(C)c2ccccc2n1)c1ccnc2ccc(OC)cc12 (some centres undefined),MIC,Pseudomonas aeruginosa,inactive
same,MIC90,Staphylococcus aureus [1],115 µM
same,MIC90,Escherichia coli,> 200 µM
FC(F)(F)c1cc(NC(=S)Nc2ccccc2)cc(C(F)(F)F)c1,survival at 72 h,[2],100%
same,MIC,Pseudomonas aeruginosa,inactive
same,MIC50,Staphylococcus aureus [1],> 275 µM
same,MIC80,Staphylococcus aureus [1],> 275 µM
same,MIC90,Staphylococcus aureus [1],> 275 µM
same,survival at 48 h,[3],100%
same,survival at 24 h,[4],100%
same,MIC50,Escherichia coli,51.5 µM
same,MIC80,Escherichia coli,103 µM
same,MIC90,Escherichia coli,206 µM
same,survival at 72 h,[5],100%
same,survival at 24 h,[6],100%
same,survival at 48 h,[7],100%
same,survival at 24 h,[8],100%
same,Activity,Galleria mellonella,Non-toxic
same,survival at 48 h,[9],100%
same,survival at 48 h,[10],100%
same,survival at 24 h,[11],100%
same,survival at 24 h,[12],100%
same,survival at 72 h,[13],100%
same,survival at 48 h,[14],100%
same,survival at 72 h,[15],100%
same,survival at 72 h,[16],100%
C=C[C@H]1CN2CC[C@H]1C[C@H]2[C@@H](NC(=S)Nc1cc(C(F)(F)F)cc(C(F)(F)F)c1)c1ccnc2ccc(OC)cc12,MIC50,Staphylococcus aureus [17],11.4 µM
same,MIC90,Staphylococcus aureus [17],17.7 µM
same,survival at 72 h,[2],100%
same,MIC,Pseudomonas aeruginosa,inactive
same,MIC50,Staphylococcus aureus [1],3.95 µM
same,MIC80,Staphylococcus aureus [1],7.9 µM
same,MIC90,Staphylococcus aureus [1],10.5 µM
same,survival at 48 h,[3],100%
same,survival at 24 h,[4],100%
same,MIC50,Escherichia coli,2.63 µM
same,MIC80,Escherichia coli,5.26 µM
same,MIC90,Escherichia coli,7.9 µM
same,survival at 72 h,[5],100%
same,survival at 24 h,[6],100%
same,survival at 48 h,[7],97%
same,survival at 24 h,[8],100%
same,Activity,Galleria mellonella,Non-toxic
same,survival at 48 h,[9],100%
same,survival at 48 h,[10],100%
same,survival at 24 h,[11],100%
same,survival at 24 h,[12],100%
same,survival at 72 h,[13],97%
same,survival at 48 h,[14],100%
same,survival at 72 h,[15],100%
same,survival at 72 h,[16],100%
CCN(CC)CCNC(=S)Nc1cc(C(F)(F)F)cc(C(F)(F)F)c1,MIC50,Staphylococcus aureus [17],13.5 µM
same,MIC90,Staphylococcus aureus [17],23.5 µM
same,survival at 72 h,[2],100%
same,MIC,Pseudomonas aeruginosa,inactive
same,MIC50,Staphylococcus aureus [1],96.9 µM
same,MIC80,Staphylococcus aureus [1],129 µM
same,MIC90,Staphylococcus aureus [1],194 µM
same,survival at 48 h,[3],100%
same,survival at 24 h,[4],100%
same,MIC50,Escherichia coli,96.9 µM
same,MIC80,Escherichia coli,129 µM
same,MIC90,Escherichia coli,194 µM
same,survival at 72 h,[5],100%
same,survival at 24 h,[6],100%
same,survival at 48 h,[7],100%
same,survival at 24 h,[8],100%
same,Activity,Galleria mellonella,Non-toxic
same,survival at 48 h,[9],100%
same,survival at 48 h,[10],100%
same,survival at 24 h,[11],100%
same,survival at 24 h,[12],100%
same,survival at 72 h,[13],100%
same,survival at 48 h,[14],100%
same,survival at 72 h,[15],100%
same,survival at 72 h,[16],100%
CCC1CN2CCC1C[C@@H]2[C@@H](Oc1nc(-c2ccccc2)nc(O[C@@H](c2ccnc3ccc(OC)cc23)[C@H]2CC3CCN2CC3CC)c1-c1ccccc1)c1ccnc2ccc(OC)cc12 (some centres undefined),MIC,Pseudomonas aeruginosa,inactive
same,MIC90,Staphylococcus aureus [1],> 200 µM
same,MIC90,Escherichia coli,> 200 µM
CCC1CN2CCC1C[C@H]2[C@@H](Oc1ccc(O[C@@H](c2ccnc3ccc(OC)cc23)[C@@H]2CC3CCN2CC3CC)c2c1C(=O)c1ccccc1C2=O)c1ccnc2ccc(OC)cc12 (some centres undefined),MIC,Pseudomonas aeruginosa,inactive
same,MIC82,Staphylococcus aureus [1],124.9 µM
same,MIC90,Escherichia coli,> 200 µM
CN(C)CCNC(=S)Nc1cc(C(F)(F)F)cc(C(F)(F)F)c1,MIC,Pseudomonas aeruginosa,inactive
same,MIC,Staphylococcus aureus [1],inactive
same,MIC,Escherichia coli,inactive
CNC(=S)Nc1cc(C(F)(F)F)cc(C(F)(F)F)c1,MIC,Pseudomonas aeruginosa,inactive
same,MIC,Staphylococcus aureus [1],inactive
same,MIC,Escherichia coli,inactive
CN(C)[C@@H]1CCCC[C@H]1NC(=S)Nc1cc(C(F)(F)F)cc(C(F)(F)F)c1,MIC50,Staphylococcus aureus [17],21.5 µM
same,MIC90,Staphylococcus aureus [17],32.2 µM
same,MIC,Pseudomonas aeruginosa,inactive
same,MIC80,Staphylococcus aureus [1],90.8 µM
same,MIC50,Escherichia coli,23.8 µM
same,MIC80,Escherichia coli,90.8 µM
same,MIC90,Escherichia coli,120 µM
